Source: patent US20100206318A1, “FILTER FOR A TOBACCO PRODUCT” (BIOHIT OYJ, priority 2007, published 2010)

Assay: acetaldehyde in saliva of testees during smoking through cigarette holder with filter (headspace gas chromatography)
Assay type: in vivo, human
Settings: FIG. 1
Excerpt: The entire filter of Marlboro Red was removed or, in some tests, 2-3 mm of the original filter was left in the cigarette.
In the tests, ready commercial cigarette holders/mouthpieces of Denicotea, www.denicotea.de were used. In the cigarette holders/mouthpieces, plastic cylinder-shaped “containers” were used, the filtering material being packed in the containers. The original content (intended for the removal of nicotine) of the containers was removed and replaced with the material that was used in the study. The outer dimensions of the container were: diameter 8 mm and length 35 mm.
Cellulose wadding (c. 100 mg), filter paper (Whattman), Commercial filters: Smart (the importer: Altadia Finland Oy) and Ventti (Philip Morris Finland Oy),
Cysteine was dissolved in distilled water, 30-180 mg of L-Cysteine/1 ml. The manufacturer: Fluka, 30089.
The filter material that had been packed in plastic cylinders was moistened with a water-cysteine solution (50-250 μl), and the filter container thus made was placed in the Denicotea cigarette holder. After this, the testees smoked the cigarettes that had been placed in the mouthpieces. During smoking, saliva samples were collected from those participating in the tests and the acetaldehyde in the saliva was analyzed by gas chromatography, Perkin-Elmer, HS40, headspace Gas Chromatograph.

Q: For `N[C@@H](CS)C(=O)O` [cysteine, L-Cysteine], which “filterability, dependence on amount” value is on record?
A: dependent on the amount of cysteine
